Experiments:
UGT74AF3b [1] = molecular target: T1, UGT74AF3b (Camellia sinensis, UniProt A0A4S4DWR1); assay: glucosyltransferase kinetics (UDP-Glo assay / LC-MS; readout for kinetics not told); type: biochemical; conditions: optimized conditions (optimum pH 8.5, 30 °C); sugar donor not stated for kinetics, presumably UDP-glucose
T1 construct: gene TEA_014443; full-length, N-terminal GST tag (pGEX-4T-1), E. coli BL21(DE3) pLysS, GST-resin purified; Ala at residue 456
Excerpt: glucosyltransferase kinetics (UDP-Glo assay / LC-MS; readout for kinetics not told) on UGT74AF3b

UGT74AF3b [2] = molecular target: T1, UGT74AF3b; assay: relative glycosyltransferase activity; type: biochemical; conditions: UDP-Glc, UDP-Gal or UDP-GA as sugar donor

T1 sequence (A0A4S4DWR1 entry or part of it): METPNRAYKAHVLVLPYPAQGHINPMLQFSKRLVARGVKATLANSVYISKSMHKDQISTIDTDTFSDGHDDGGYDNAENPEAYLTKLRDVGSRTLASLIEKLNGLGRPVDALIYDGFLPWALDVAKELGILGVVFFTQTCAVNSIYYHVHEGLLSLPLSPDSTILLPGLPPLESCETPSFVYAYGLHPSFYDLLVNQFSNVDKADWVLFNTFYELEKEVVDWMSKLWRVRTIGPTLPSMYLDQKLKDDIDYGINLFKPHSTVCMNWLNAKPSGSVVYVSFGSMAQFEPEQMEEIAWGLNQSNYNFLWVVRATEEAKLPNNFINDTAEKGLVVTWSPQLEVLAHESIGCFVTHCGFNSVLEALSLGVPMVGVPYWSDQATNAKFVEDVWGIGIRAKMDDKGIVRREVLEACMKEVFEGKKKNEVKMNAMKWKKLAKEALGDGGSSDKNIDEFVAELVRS

With CC1=C(O)C(=O)C(C)O1 (centres unmarked) [HDMF, 4-Hydroxy-2,5-dimethylfuran-3(2H)-one] the Km (UGT74AF3b [1]) was 5.14 ± 1.58 µM and the relative enzymatic activity (UGT74AF3b [2]) was “The A456V mutant exhibited enhanced glucosylation activity toward HDMF, EHMF, and HMF”.

From paper PMC7049299, “UGT74AF3 enzymes specifically catalyze the glucosylation of 4-hydroxy-2,5-dimethylfuran-3(2H)-one, an important volatile compound in Camellia sinensis” (Horticulture Research, 2020)
